Patent US20150197492A1, “NOVEL INDENO[1,2-c]QUINOLIN-11-ONE DERIVATIVES, PREPARATION METHOD AND APPLICATION THEREOF” (National Defense Medical Center, priority 2014, published 2015)

Assays:
Assay in all cases: cells
Format in all cases: cell-based
[1] = tested on: K-562
[2] = tested on: MOLT-4
[3] = tested on: RPMI-8226
[4] = tested on: NCI-H226
[5] = tested on: NCI-H322M
[6] = tested on: COLO 205
[7] = tested on: HCC-2998
[8] = tested on: HCT-116
[9] = tested on: HCT-15
[10] = tested on: HT29
[11] = tested on: KM12
[12] = tested on: SF-268
[13] = tested on: SF-539
[14] = tested on: SNB-75
[15] = tested on: LOX IMVI; conditions: Melanoma LOX IMV1
[16] = tested on: MALME-3M
[17] = tested on: M14
[18] = tested on: SK-MEL-2; conditions: Melanoma SK-MEL-2
[19] = tested on: UACC-62
[20] = tested on: OVCAR-3
[21] = tested on: OVCAR-5
[22] = tested on: OVCAR-8
[23] = tested on: NCI/ADR-RES
[24] = tested on: A498
[25] = tested on: RXF 393
[26] = tested on: SN12C
[27] = tested on: UO-31
[28] = tested on: PC-3
[29] = tested on: HS 578T
[30] = tested on: T-47D
[31] = tested on: MDA-MB-468
[32] = Homo sapiens, K562, Leukemia K-562
[33] = Homo sapiens, Colon Cancer COLO 205
[34] = Homo sapiens, Colon Cancer HCT-116
[35] = Homo sapiens, CNS Cancer SF-268
[36] = Homo sapiens, CNS Cancer SF-539
[37] = Homo sapiens, Melanoma MALME-3M

SMILES: O=C1c2cc(Cl)ccc2-c2c(N3CCNCC3)nc3ccccc3c21 [SJ-10, 9-Chloro-6-(piperazin-1-yl)-11H-indeno[1,2-c]quinolin-11-one]
- GI50 [1, 32]: 7.8 µM
- LC50 (lethal concentration, 50% cell kill) [1, 32]: > 100 µM
- growth percentage ([1]; K-562 (Leukemia), 10 μM, 48 hours): -65.71%
- TGI ([1]; Leukemia K-562): >100 µM
- GI50 ([2]; Homo sapiens, Leukemia MOLT-4): 4.41 µM
- LC50 (concentration killing 50% of cells) ([2]; Homo sapiens, Leukemia MOLT-4): > 100 µM
- TGI ([2]; Leukemia MOLT-4): >100 µM
- growth percentage ([2]; MOLT-4 (Leukemia), 10 μM, 48 hours): -43.22%
- GI50 ([3]; Homo sapiens, Leukemia RPMI-8226): 7.48 µM
- CC50 ([3]; Homo sapiens, Leukemia RPMI-8226, read-out: LC50 (the source's name)): > 100 µM
- TGI ([3]; Leukemia RPMI-8226): >100 µM
- growth percentage ([3]; RPMI-8226 (Leukemia), 10 μM, 48 hours): -43.57%
- GI50 ([4]; Homo sapiens, Non-Small Cell Lung Cancer NCI-H226): 7.77 µM
- CC50 ([4]; Homo sapiens, Non-Small Cell Lung Cancer NCI-H226, read-out: LC50 (the source's name)): > 100 µM
- growth percentage ([4]; NCI-H226 (Non-Small Cell Lung Cancer), 10 μM, 48 hours): 49.94%
- TGI ([4]; Non-Small Cell Lung Cancer NCI-H226): >100 µM
- GI50 ([5]; Homo sapiens, Non-Small Cell Lung Cancer NCI-H322M): 5.62 µM
- CC50 ([5]; Homo sapiens, Non-Small Cell Lung Cancer NCI-H322M, read-out: LC50 (the source's name)): > 100 µM
- growth percentage ([5]; NCI-H322M (Non-Small Cell Lung Cancer), 10 μM, 48 hours): 35.89%
- TGI ([5]; Non-Small Cell Lung Cancer NCI-H322M): >100 µM
- growth percentage ([6]; COLO 205 (Colon Cancer), 10 μM, 48 hours): -81.49%
- TGI ([6]; Colon Cancer COLO 205): >100 µM
- GI50 [6, 33]: 12.2 µM
- LC50 (50% lethal concentration) [6, 33]: > 100 µM
- TGI ([7]; Colon Cancer HCC-2998): >100 µM
- growth percentage ([7]; HCC-2998 (Colon Cancer), 10 μM, 48 hours): -55.83%
- GI50 ([7]; Homo sapiens, Colon Cancer HCC-2998): 30.9 µM
- CC50 ([7]; Homo sapiens, Colon Cancer HCC-2998, read-out: LC50 (the source's name)): > 100 µM
- TGI ([8]; Colon Cancer HCT-116): >100 µM
- growth percentage ([8]; HCT-116 (Colon Cancer), 10 μM, 48 hours): -83.19%
- GI50 [8, 34]: 5.42 µM
- LC50 (50% lethal concentration) [8, 34]: > 100 µM
- TGI ([9]; Colon Cancer HCT-15): >100 µM
- growth percentage ([9]; HCT-15 (Colon Cancer), 10 μM, 48 hours): -78.92%
- GI50 ([9]; Homo sapiens, Colon Cancer HCT-15): 4.34 µM
- CC50 ([9]; Homo sapiens, Colon Cancer HCT-15, read-out: LC50 (the source's name)): > 100 µM
- TGI ([10]; Colon Cancer HT29): >100 µM
- growth percentage ([10]; HT29 (Colon Cancer), 10 μM, 48 hours): -80.89%
- GI50 ([10]; Homo sapiens, HT-29, Colon Cancer HT29): 7.84 µM
- CC50 ([10]; Homo sapiens, HT-29, Colon Cancer HT29, read-out: LC50 (the source's name)): > 100 µM
- TGI ([11]; Colon Cancer KM12): >100 µM
- GI50 ([11]; Homo sapiens, Colon Cancer KM12): 2.5 µM
- CC50 ([11]; Homo sapiens, Colon Cancer KM12, read-out: LC50 (the source's name)): > 100 µM
- growth percentage ([11]; KM12 (Colon Cancer), 10 μM, 48 hours): -47.09%
- TGI ([12]; CNS Cancer SF-268): >100 µM
- GI50 [12, 35]: 8.71 µM
- LC50 [12, 35]: > 100 µM
- growth percentage ([12]; SF-268 (CNS Cancer), 10 μM, 48 hours): 34.33%
- TGI ([13]; CNS Cancer SF-539): >100 µM
- GI50 [13, 36]: 14.2 µM
- LC50 (concentration giving 50% net cell kill) [13, 36]: > 100 µM
- growth percentage ([13]; SF-539 (CNS Cancer), 10 μM, 48 hours): 36.91%
- TGI ([14]; CNS Cancer SNB-75): >100 µM
- GI50 ([14]; Homo sapiens, CNS Cancer SNB-75): 4.53 µM
- CC50 ([14]; Homo sapiens, CNS Cancer SNB-75, read-out: LC50 (the source's name)): > 100 µM
- growth percentage ([14]; SNB-75 (CNS Cancer), 10 μM, 48 hours): 22.34%
- GI50 ([15]; Homo sapiens, LOX IMVI): 4.74 µM
- CC50 ([15]; Homo sapiens, LOX IMVI, read-out: LC50 (the source's name)): > 100 µM
- TGI [15]: >100 µM
- GI50 [16, 37]: 8.87 µM
- LC50 (concentration killing 50% of cells) [16, 37]: > 100 µM
- growth percentage ([16]; MALME-3M (Melanoma), 10 μM, 48 hours): -32.28%
- TGI ([16]; Melanoma MALME-3M): >100 µM
- GI50 ([17]; Homo sapiens, Melanoma M14): 7.49 µM
- CC50 ([17]; Homo sapiens, Melanoma M14, read-out: LC50 (the source's name)): > 100 µM
- growth percentage ([17]; M14 (Melanoma), 10 μM, 48 hours): -56.24%
- TGI ([17]; Melanoma M14): >100 µM
- GI50 ([18]; Homo sapiens): 7.36 µM
- CC50 ([18]; Homo sapiens, read-out: LC50 (the source's name)): > 100 µM
- TGI [18]: >100 µM
- GI50 ([19]; Homo sapiens, Melanoma UACC-62): 4.38 µM
- CC50 ([19]; Homo sapiens, Melanoma UACC-62, read-out: LC50 (the source's name)): > 100 µM
- TGI ([19]; Melanoma UACC-62): >100 µM
- growth percentage ([19]; UACC-62 (Melanoma), 10 μM, 48 hours): -81.71%
- GI50 ([20]; Homo sapiens, Ovarian Cancer OVCAR-3): 12.8 µM
- CC50 ([20]; Homo sapiens, Ovarian Cancer OVCAR-3, read-out: LC50 (the source's name)): > 100 µM
- growth percentage ([20]; OVCAR-3 (Ovarian Cancer), 10 μM, 48 hours): 22.86%
- TGI ([20]; Ovarian Cancer OVCAR-3): >100 µM
- GI50 ([21]; Homo sapiens, Ovarian Cancer OVCAR-5): 34.5 µM
- CC50 ([21]; Homo sapiens, Ovarian Cancer OVCAR-5, read-out: LC50 (the source's name)): > 100 µM
- growth percentage ([21]; OVCAR-5 (Ovarian Cancer), 10 μM, 48 hours): 39.14%
- TGI ([21]; Ovarian Cancer OVCAR-5): >100 µM
- GI50 ([22]; Homo sapiens, Ovarian Cancer OVCAR-8): 8.66 µM
- CC50 ([22]; Homo sapiens, Ovarian Cancer OVCAR-8, read-out: LC50 (the source's name)): > 100 µM
- growth percentage ([22]; OVCAR-8 (Ovarian Cancer), 10 μM, 48 hours): -46.09%
- TGI ([22]; Ovarian Cancer OVCAR-8): >100 µM
- GI50 ([23]; Homo sapiens, Ovarian Cancer NCI/ADR-RES): 22.5 µM
- CC50 ([23]; Homo sapiens, Ovarian Cancer NCI/ADR-RES, read-out: LC50 (the source's name)): > 100 µM
- growth percentage ([23]; NCI/ADR-RES (Ovarian Cancer), 10 μM, 48 hours): -4.00%
- TGI ([23]; Ovarian Cancer NCI/ADR-RES): >100 µM
- growth percentage ([24]; A498 (Renal Cancer), 10 μM, 48 hours): 59.79%
- GI50 ([24]; Homo sapiens, Renal Cancer A498): 2.63 µM
- CC50 ([24]; Homo sapiens, Renal Cancer A498, read-out: LC50 (the source's name)): > 100 µM
- TGI ([24]; Renal Cancer A498): >100 µM
- GI50 ([25]; Homo sapiens, Renal Cancer RXF 393): 4.55 µM
- CC50 ([25]; Homo sapiens, Renal Cancer RXF 393, read-out: LC50 (the source's name)): > 100 µM
- growth percentage ([25]; RXF 393 (Renal Cancer), 10 μM, 48 hours): 20.51%
- TGI ([25]; Renal Cancer RXF 393): >100 µM
- GI50 ([26]; Homo sapiens, Renal Cancer SN12C): 5.42 µM
- CC50 ([26]; Homo sapiens, Renal Cancer SN12C, read-out: LC50 (the source's name)): > 100 µM
- TGI ([26]; Renal Cancer SN12C): >100 µM
- growth percentage ([26]; SN12C (Renal Cancer), 10 μM, 48 hours): 15.89%
- GI50 ([27]; Homo sapiens, Renal Cancer UO-31): 2.83 µM
- CC50 ([27]; Homo sapiens, Renal Cancer UO-31, read-out: LC50 (the source's name)): > 100 µM
- TGI ([27]; Renal Cancer UO-31): >100 µM
- growth percentage ([27]; UO-31 (Renal Cancer), 10 μM, 48 hours): -40.61%
- GI50 ([28]; Homo sapiens, Prostate Cancer PC-3): 5.93 µM
- CC50 ([28]; Homo sapiens, Prostate Cancer PC-3, read-out: LC50 (the source's name)): > 100 µM
- growth percentage ([28]; PC-3 (Prostate Cancer), 10 μM, 48 hours): -58.51%
- TGI ([28]; Prostate Cancer PC-3): >100 µM
- TGI ([29]; Breast Cancer HS 578T): >100 µM
- growth percentage ([29]; HS 578T (Breast Cancer), 10 μM, 48 hours): 60.88%
- GI50 ([29]; Homo sapiens, Breast Cancer HS 578T): 4.77 µM
- CC50 ([29]; Homo sapiens, Breast Cancer HS 578T, read-out: LC50 (the source's name)): > 100 µM
- TGI ([30]; Breast Cancer T-47D): >100 µM
- GI50 ([30]; Homo sapiens, T47D, Breast Cancer T-47D): 8.44 µM
- CC50 ([30]; Homo sapiens, T47D, Breast Cancer T-47D, read-out: LC50 (the source's name)): > 100 µM
- growth percentage ([30]; T-47D (Breast Cancer), 10 μM, 48 hours): -31.54%
- TGI ([31]; Breast Cancer MDA-MB-468): >100 µM
- GI50 ([31]; Homo sapiens, Breast Cancer MDA-MB-468): 4.42 µM
- CC50 ([31]; Homo sapiens, Breast Cancer MDA-MB-468, read-out: LC50 (the source's name)): > 100 µM
- growth percentage ([31]; MDA-MB-468 (Breast Cancer), 10 μM, 48 hours): -35.66%
